Assay results from patent US12187758B2 (ROME Therapeutics, Inc., priority 2022, dated 2025).

Assays:
Type in all cases: cell-based
[1] = system: PC3 cells; assay: Mitochondria toxicity assay with PC3 cells, cytotoxicity (Cell Titer Glo); conditions: Homo sapiens, PC-3, 120 h, 5 days treatment
Procedure, shortened: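 Cytotoxicity reported in μM bins, A <1.0 through E >100.0. Measured via Cell Titer Glo luminescence (30 min, room temperature) after 5-day dose-titration treatment of PC3 cells, grown in F-12K/10% FBS, at 37° C, 5% CO2.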

[2] = system: SDH-A (succinate dehydrogenase-A); assay: Mitochondria toxicity assay with PC3 cells, in-cell ELISA SDH-A; conditions: 5 days treatment
Procedure, shortened: (§1)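 This in-cell ELISA was run on fixed, permeabilized PC3 cells after 5-day exposure to titrated compound, with cytotoxicity measured on a duplicate plate. Results are reported as categories A (<1.0 μM) to E (>100.0 μM).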

[3] = Mitochondria toxicity assay with PC3 cells, in-cell ELISA COX-1; conditions: 5 days treatment
Procedure, shortened: as §1

[4] = system: THP1-Dual KO-TREX1 cells; assay: THP1 TREX1 KO inhibition assay (type 1 interferon response); conditions: Homo sapiens, 144 h, type 1 interferon (QUANTI-LUC), 1 μM 5-aza-2′-deoxycytidine, six days
Procedure, shortened: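 THP1-Dual KO-TREX1 cells were treated with a dose titration of compound, alone or with 1 μM 5-aza-2′-deoxycytidine, for six days at 37 °C. Type 1 interferon was read as secreted luciferase (QUANTI-LUC) in the supernatant, and viability by CellTiter-Glo luminescence.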

| Compound | IC50 [4] [µM] | IC50 [1] [µM] | IC50 [2] [µM] | IC50 [3] [µM] |
| --- | --- | --- | --- | --- |
| Nc1ccn([C@@H]2O[C@@](CO)(CF)[C@@H](O)[C@@H]2F)c(=O)n1 [Compound 113, 4-amino-1-((2R,3S,4R,5R)-3-fluoro-5-(fluoromethyl)-4-hydroxy-5-(hydroxymethyl)-tetrahydrofuran-2-yl)pyrimidin-2(1H)-one] | > 1 | < 1 | < 1 | < 1 |
| Nc1ccn([C@@H]2O[C@@](CO)(CCl)[C@@H](O)[C@@H]2O)c(=O)n1 [Compound 114, 4-amino-1-((2R,3S,4S,5R)-5-(chloromethyl)-3,4-dihydroxy-5-(hydroxymethyl)tetrahydro-furan-2-yl)pyrimidin-2(1H)-one] | > 1 | > 100 | > 100 | > 100 |
| CC[C@]1(CO)O[C@@H](n2cnc3c(=O)[nH]c(N)nc32)C[C@@H]1O [Compound 115, 2-amino-9-((2R,4S,5R)-5-ethyl-4-hydroxy-5-(hydroxymethyl)tetrahydro-furan-2-yl)-1,9-dihydro-6H-purin-6-one] | > 1 | 1 to 10 | 1 to 10 | 1 to 10 |
| Nc1ccn([C@@H]2O[C@@](CO)(CCl)[C@@H](O)C2(F)F)c(=O)n1 [Compound 119, 4-amino-1-((2R,4R,5R)-5-(chloromethyl)-3,3-difluoro-4-hydroxy-5-(hydroxymethyl)tetrahydrofuran-2-yl)pyrimidin-2(1H)-one] | > 1 | 1 to 10 | 1 to 10 | 1 to 10 |
| Nc1ccn([C@@H]2O[C@@](CO)(C3CC3)[C@@H](O)[C@@H]2F)c(=O)n1 [Compound 121, 4-amino-1-[(2R,3S,4R,5R)-5-cyclopropyl-3-fluoro-4-hydroxy-5-(hydroxymethyl)oxolan-2-yl] pyrimidin-2-one] | > 1 | > 100 | > 100 | > 100 |
| C=C=C[C@]1(CO)O[C@@H](n2cnc3c(N)nc(F)nc32)C[C@@H]1O [Compound 164, (2R,3S,5R)-5-(6-amino-2-fluoropurin-9-yl)-2-(hydroxymethyl)-2-(propa-1,2-dien-1-yl) oxolan-3-ol] | > 1 | > 100 | > 100 | > 100 |
| Nc1ccn([C@@H]2O[C@@](CO)(CBr)[C@@H](O)[C@@H]2F)c(=O)n1 [Compound 172] | > 1 | > 100 | > 100 | > 100 |
| Cc1cn([C@@H]2O[C@@](CO)(CCl)[C@@H](O)[C@@H]2F)c(=O)[nH]c1=O [Compound 176] | > 1 | > 100 | > 100 | > 100 |
| Cc1cn([C@@H]2O[C@@](CO)(N=[N+]=[N-])[C@@H](O)[C@@H]2F)c(=O)[nH]c1=O [Compound 178, 1-((2R,3S,4R,5R)-5-azido-3-fluoro-4-hydroxy-5-(hydroxymethyl)tetrahydrofuran-2-yl)-5-methylpyrimidine-2,4(1H,3H)-dione] | > 1 | > 100 | > 100 | 10 to 50 |
| O=c1[nH]c(=O)n([C@@H]2O[C@@](CO)(CCO)[C@@H](O)[C@@H]2F)cc1F [Compound 179, 5-fluoro-1-((2R,3S,4R,5R)-3-fluoro-4-hydroxy-5-(2-hydroxyethyl)-5-(hydroxymethyl)tetrahydrofuran-2-yl) pyrimidine-2,4(1H,3H)-dione] | > 1 | > 100 | > 100 | > 100 |
| Cc1cn([C@H]2C[C@H](F)[C@@](C)(CO)O2)c(=O)[nH]c1=O [Compound 180, 1-((2R,4S,5R)-4-fluoro-5-(hydroxymethyl)-5-methyltetrahydrofuran-2-yl)-5-methylpyrimidine-2,4(1H,3H)-dione] | > 1 | > 100 | > 100 | > 100 |

The next lines start with results.

| IC50 [4] [µM] | Compound | IC50 [1] [µM] | IC50 [2] [µM] | IC50 [3] [µM] |
| --- | --- | --- | --- | --- |
| > 1 | Nc1nc(=O)n([C@H]2C[C@H](O)[C@](CO)(C3CC3)O2)cc1F [Compound 120, 4-amino-1-[(2R,4S,5R)-5-cyclopropyl-4-hydroxy-5-(hydroxymethyl)oxolan-2-yl]-5-fluoropyrimidin-2-one] | > 100 | > 100 | > 100 |
| > 1 | Nc1nc(=O)n([C@@H]2O[C@@](CO)(C3CC3)[C@@H](O)[C@@H]2F)cc1F [Compound 122, 4-amino-1-[(2R,3S,4R,5R)-5-cyclopropyl-3-fluoro-4-hydroxy-5-(hydroxymethyl)oxolan-2-yl]-5-fluoropyrimidin-2-one] | > 100 | > 100 | > 100 |
| > 1 | Nc1nc(=O)n([C@@H]2O[C@](/C=C\F)(CO)[C@@H](O)[C@@H]2F)cc1F [Compound 123, 4-amino-5-fluoro-1-((2R,3S,4R,5R)-3-fluoro-5-((Z)-2-fluorovinyl)-4-hydroxy-5-(hydroxymethyl)tetrahydrofuran-2-yl)pyrimidin-2(1H)-one] | > 100 | > 100 | > 100 |
| > 1 | Nc1nc(=O)n([C@@H]2O[C@](/C=C/Cl)(CO)[C@@H](O)[C@@H]2F)cc1F [Compound 131, 4-amino-1-[(2R,3S,4R,5R)-5(E)-(2-chloroethenyl)-3-fluoro-4-hydroxy-5-(hydroxymethyl)oxolan-2-yl]-5-fluoropyrimidin-2-one] | > 100 | > 100 | > 100 |
| > 1 | Nc1nc(=O)n([C@@H]2O[C@@](CO)(CCl)[C@@H](O)[C@@H]2Cl)cc1F [Compound 137, 4-amino-1-[(2R,3S,4R,5R)-3-chloro-5-(chloromethyl)-4-hydroxy-5-(hydroxymethyl)oxolan-2-yl]-5-fluoropyrimidin-2-one] | > 100 | > 100 | > 100 |
| 0.25 to 1 | [N-]=[N+]=N[C@]1(CO)O[C@@H](n2cc(F)c(N)nc2=O)[C@@H](F)[C@@H]1O [Compound 165] | > 100 | < 1 | < 1 |
| 0.25 to 1 | [2H]C([2H])(Cl)[C@]1(CO)O[C@@H](n2cc(F)c(N)nc2=O)[C@@H](F)[C@@H]1O [Compound 175, 4-amino-1-((2R,3S,4R,5R)-5-(chloromethyl-d2)-3-fluoro-4-hydroxy-5-(hydroxymethyl)tetrahydrofuran-2-yl)-5-fluoropyrimidin-2(1H)-one] | > 100 | > 100 | > 100 |
| > 1 | Nc1nc(=O)n([C@@H]2OC(CO)(CO)[C@@H](O)[C@@H]2F)cc1F [Compound 177, 4-amino-5-fluoro-1-((2R,3S,4R)-3-fluoro-4-hydroxy-5,5-bis(hydroxymethyl)tetrahydrofuran-2-yl) pyrimidin-2(1H)-one] | > 100 | > 100 | > 100 |
